# In ChEMBL document CHEMBL1201862, “PubChem BioAssay data set” (2004):
# Activity calls are given as the source filed them.
# How the values were obtained:
# HEK293 [1] = assay: NOD1 signaling inhibitors, primary screen, cell-based, luminescence, uHTS (AID 1578); format: functional; details: Homo sapiens
# HEK293 [2] = assay: cells; format: functional, cell-based; details: Homo sapiens
# HEK293 [3] = assay: cells; format: functional, cell-based; details: Homo sapiens; remark: listed apart in the source
# HEK293 [4] = assay: NOD2 signaling inhibitors in MDP-stimulated cells, cell-based, uHTS, luminescence (AID 2001); format: functional; details: Homo sapiens
# [5] = cytotoxicity in HEK-293T cells, dose response, cytotoxicity control for TCR NF-kB inhibitor project, luminescence, T-cell screen hits (AID 489026); format: functional, cell-based;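 further: cells exposed to compound about 14 hours before the viability readout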
# [6] = molecular target: Glucose-6-phosphate 1-dehydrogenase (Homo sapiens, UniProt P11413); assay: human G6PD enzyme inhibitors, dose response, selectivity assay for P. falciparum G6PD inhibitor project, biochemical, fluorescence (AID 504792); format: functional
# [7] = tested on: Streptococcus sp. 'group A'; assay: growth inhibition of control SK(-) GAS strain, dose response, counter-screen for streptokinase expression inhibitor project, luminescence, kanamycin, BacTiterGlo, confirmation (AID 1900); format: functional, organism-based
# Streptokinase A = molecular target: T1, Streptokinase A (Streptococcus pyogenes serotype M1, UniProt P10520); assay: S. pyogenes streptokinase expression inhibitors, potency, dose response, plasminogen activation absorbance, OD405 (AID 1914); format: functional, Streptococcus pyogenes M1 GAS;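 further: secreted streptokinase activity via plasminogen activation per viability signal from cell pellet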
# T1 sequence (P10520 whole entry): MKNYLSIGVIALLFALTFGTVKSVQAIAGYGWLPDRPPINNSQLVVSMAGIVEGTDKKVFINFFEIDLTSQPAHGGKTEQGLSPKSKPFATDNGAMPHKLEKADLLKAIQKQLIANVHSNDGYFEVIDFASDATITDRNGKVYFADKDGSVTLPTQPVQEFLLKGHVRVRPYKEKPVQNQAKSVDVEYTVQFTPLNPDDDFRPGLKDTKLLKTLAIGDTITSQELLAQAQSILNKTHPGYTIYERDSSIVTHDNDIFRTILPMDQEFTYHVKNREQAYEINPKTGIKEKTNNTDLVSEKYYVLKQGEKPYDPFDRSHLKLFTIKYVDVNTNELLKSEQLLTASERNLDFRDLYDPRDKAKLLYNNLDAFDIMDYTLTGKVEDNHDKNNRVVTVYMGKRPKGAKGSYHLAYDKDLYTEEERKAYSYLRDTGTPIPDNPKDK
# Streptococcus = assay: Group A Streptococcus viability loss, dose response, counter-screen for streptokinase expression inhibitor project, luminescence, BacTiterGlo (AID 1915); format: functional, organism-based;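 further: potency for reduction of bacterial viability or growth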
# [8] = THP-1 cell cytotoxicity, dose response, cytotoxicity control for non-replicating M. tuberculosis project (AID 489025); format: functional
# [9] = Luminescence Cell-Based Dose Retest to Confirm Inhibitors of Cancer Stem Cells. [Related pubchem assays (depositor defined):AID2717, AID2721]; format: functional; details: Homo sapiens
# [10] = HepG2 cell cytotoxicity, dose response, cytotoxicity control for non-replicating M. tuberculosis project (AID 489018); format: functional; details: Mycobacterium tuberculosis
# [11] = Vero E6 cell cytotoxicity, dose response, cytotoxicity control for non-replicating M. tuberculosis project, secondary assay (AID 492998); format: functional, VeroE6; details: Vero C1008
# cells = format: functional
# Paired box protein Pax-8 = Paired box protein Pax-8 (Homo sapiens, UniProt Q06710); assay: inhibitors of PAX8-driven TPO luciferase reporter, dose response, RMG-I cells, cherry-pick (AID 687027); format: functional, cell-based;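 further: luciferase reporter driven by Pax8 target thyroperoxidase promoter measured by SteadyGlo luminescence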
# BJ [12] = assay: cytotoxicity toward BJ-TERT fibroblasts, dose response, cell-based, RAS-independent, luminescence (AID 1933); format: functional; details: Homo sapiens
# Vero [13] = assay: host cell cytotoxicity of antiviral hits, dose response, cytotoxicity control for West Nile virus antiviral project, secondary assay (AID 1650); format: functional; details: Chlorocebus sabaeus
# BJ [14] = assay: cells; format: functional, cell-based; details: Homo sapiens
# BJ [15] = assay: cytotoxicity toward BJ-TERT-LT-ST fibroblasts, dose response, cell-based, RAS-independent, luminescence (AID 1935); format: functional; details: Homo sapiens;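 further: BJ fibroblasts immortalized with TERT plus LT and ST oncogenes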
# [16] = cytotoxicity toward DRD oncogenic fibroblasts, dose response, cell-based, non-viral oncogenic, luminescence (AID 1934); format: functional; details: Homo sapiens
# Vero [17] = assay: cells; format: functional, cell-based; details: Chlorocebus sabaeus
# Vero [18] = assay: cells; format: functional; details: Chlorocebus sabaeus
# [19] = molecular target: T2, Corticotropin-releasing factor receptor 2/Corticotropin-releasing factor-binding protein (Homo sapiens, UniProt P24387+Q13324); assay: Dose Response confirmation of uHTS hits for small molecule antagonists of the CRF-binding protein and CRF-R2 receptor complex.; format: functional; details: read-out: IC50_Mean
# T2 sequence (Q13324 whole entry): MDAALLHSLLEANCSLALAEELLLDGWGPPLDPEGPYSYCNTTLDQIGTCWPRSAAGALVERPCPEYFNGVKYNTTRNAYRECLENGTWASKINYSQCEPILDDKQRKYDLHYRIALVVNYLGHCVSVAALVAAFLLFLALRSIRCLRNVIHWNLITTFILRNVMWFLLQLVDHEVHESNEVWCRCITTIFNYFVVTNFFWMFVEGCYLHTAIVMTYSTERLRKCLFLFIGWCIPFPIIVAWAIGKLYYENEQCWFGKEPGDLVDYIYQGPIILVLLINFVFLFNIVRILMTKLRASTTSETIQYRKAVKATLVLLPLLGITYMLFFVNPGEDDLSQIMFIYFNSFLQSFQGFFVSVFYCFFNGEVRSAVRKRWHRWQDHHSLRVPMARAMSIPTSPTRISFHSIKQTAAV
# T2 sequence (P24387 whole entry): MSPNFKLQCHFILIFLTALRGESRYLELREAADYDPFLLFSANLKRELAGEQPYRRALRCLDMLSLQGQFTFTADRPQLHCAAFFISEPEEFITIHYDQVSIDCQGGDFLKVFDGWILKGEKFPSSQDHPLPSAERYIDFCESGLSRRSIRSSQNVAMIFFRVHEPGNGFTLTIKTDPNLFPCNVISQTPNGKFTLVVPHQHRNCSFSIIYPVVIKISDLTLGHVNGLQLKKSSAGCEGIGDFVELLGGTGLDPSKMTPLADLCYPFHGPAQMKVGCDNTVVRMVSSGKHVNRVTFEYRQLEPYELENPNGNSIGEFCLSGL
# [20] = molecular target: T2, Corticotropin-releasing factor receptor 2/Corticotropin-releasing factor-binding protein; assay: activators of CRF receptor 2 with binding protein – uHTS hits, confirmation (AID 602473); format: functional; details: read-out: EC50_Mean
# [21] = cytotoxicity in HPDE-C7 cells, cell-based, fluorescence, HTS (AID 430); format: functional; details: Homo sapiens
# [22] = cytotoxicity in KRAS-transformed pancreatic duct cells, primary screen, cell-based, fluorescence, HTS (AID 431); format: functional; details: Homo sapiens;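 further: cell line used: HPDE-C7K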
# [23] = growth suppression of PTEN-null colon cells, dose response, cell-based, HCT116 PTEN knockout (AID 1047); format: functional;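 further: HCT116 colon tumor cells with PTEN knocked out; cells exposed to compound for 60 hours before readout; potency for loss of cell viability measured by luminescence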
# [24] = growth suppression of beta-catenin-knockout colon cells, dose response, cell-based, HCT116, human colon tumor (AID 1045); format: functional;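 further: HCT116 colon tumor cells with beta catenin knocked out; cells exposed to compound for 60 hours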
# Bcl-2-related protein A1 = molecular target: T3, Bcl-2-related protein A1 (Mus musculus, UniProt Q07440); format: functional;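 further: confirmatory dose–response counterscreen on Bfl-1, used to check hits from a UBC13 polyubiquitin inhibitor campaign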
# T3 sequence (Q07440 whole entry): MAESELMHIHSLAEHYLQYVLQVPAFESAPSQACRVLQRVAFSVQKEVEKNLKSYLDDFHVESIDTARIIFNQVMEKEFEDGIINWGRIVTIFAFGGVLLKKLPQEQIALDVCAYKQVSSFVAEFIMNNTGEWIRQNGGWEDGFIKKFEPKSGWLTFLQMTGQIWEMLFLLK
# [25] = molecular target: T4, Ubiquitin-conjugating enzyme E2 N (Homo sapiens, UniProt P61088); format: functional
# T4 sequence (P61088 whole entry): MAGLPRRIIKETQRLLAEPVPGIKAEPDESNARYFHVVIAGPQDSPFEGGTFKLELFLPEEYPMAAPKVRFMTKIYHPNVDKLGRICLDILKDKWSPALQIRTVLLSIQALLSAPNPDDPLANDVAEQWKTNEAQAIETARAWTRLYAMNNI
# [26] = molecular target: T4, Ubiquitin-conjugating enzyme E2 N; format: functional; remark: listed apart in the source
# [27] = molecular target: T5, Long-chain-fatty-acid--AMP ligase FadD28 (Mycobacterium tuberculosis, UniProt P9WQ59); assay: Fluorescence polarization aasay to screen for inhibitors that compete for the binding of FadD28 to a bisubstrate Measured in Biochemical System Using Plate Reader - 2147-01_Inhibitor_Dose_CherryPick_Activity.; format: functional, Mycobacterium tuberculosis H37Rv
# T5 sequence (P9WQ59 whole entry): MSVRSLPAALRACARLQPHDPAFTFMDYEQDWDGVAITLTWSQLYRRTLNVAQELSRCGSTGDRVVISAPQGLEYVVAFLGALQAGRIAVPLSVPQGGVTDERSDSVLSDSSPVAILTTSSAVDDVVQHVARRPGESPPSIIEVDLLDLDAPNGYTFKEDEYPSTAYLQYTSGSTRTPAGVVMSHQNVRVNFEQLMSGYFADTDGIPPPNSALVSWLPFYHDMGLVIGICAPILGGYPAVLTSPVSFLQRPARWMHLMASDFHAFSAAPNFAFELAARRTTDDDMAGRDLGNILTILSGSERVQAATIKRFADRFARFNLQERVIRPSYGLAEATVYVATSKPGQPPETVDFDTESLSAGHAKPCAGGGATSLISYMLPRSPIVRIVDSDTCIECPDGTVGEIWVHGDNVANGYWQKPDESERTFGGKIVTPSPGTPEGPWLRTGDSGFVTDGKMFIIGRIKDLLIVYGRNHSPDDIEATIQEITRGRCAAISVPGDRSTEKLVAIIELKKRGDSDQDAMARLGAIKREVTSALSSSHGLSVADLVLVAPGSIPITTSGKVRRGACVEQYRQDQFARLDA
# Chain of Paired box protein Pax-8 (Q06710 whole entry): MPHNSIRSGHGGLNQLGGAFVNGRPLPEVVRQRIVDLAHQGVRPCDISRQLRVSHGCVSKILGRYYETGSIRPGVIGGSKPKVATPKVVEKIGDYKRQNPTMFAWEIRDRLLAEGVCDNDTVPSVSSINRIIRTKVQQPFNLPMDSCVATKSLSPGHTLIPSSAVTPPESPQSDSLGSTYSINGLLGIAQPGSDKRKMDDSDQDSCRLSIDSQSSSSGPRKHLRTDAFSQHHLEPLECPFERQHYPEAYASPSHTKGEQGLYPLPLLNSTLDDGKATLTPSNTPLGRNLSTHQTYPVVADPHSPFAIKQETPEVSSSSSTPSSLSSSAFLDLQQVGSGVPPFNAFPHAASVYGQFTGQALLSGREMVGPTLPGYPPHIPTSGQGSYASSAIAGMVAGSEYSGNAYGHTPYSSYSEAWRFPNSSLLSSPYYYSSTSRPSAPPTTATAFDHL
# Chain of Glucose-6-phosphate 1-dehydrogenase (P11413 whole entry): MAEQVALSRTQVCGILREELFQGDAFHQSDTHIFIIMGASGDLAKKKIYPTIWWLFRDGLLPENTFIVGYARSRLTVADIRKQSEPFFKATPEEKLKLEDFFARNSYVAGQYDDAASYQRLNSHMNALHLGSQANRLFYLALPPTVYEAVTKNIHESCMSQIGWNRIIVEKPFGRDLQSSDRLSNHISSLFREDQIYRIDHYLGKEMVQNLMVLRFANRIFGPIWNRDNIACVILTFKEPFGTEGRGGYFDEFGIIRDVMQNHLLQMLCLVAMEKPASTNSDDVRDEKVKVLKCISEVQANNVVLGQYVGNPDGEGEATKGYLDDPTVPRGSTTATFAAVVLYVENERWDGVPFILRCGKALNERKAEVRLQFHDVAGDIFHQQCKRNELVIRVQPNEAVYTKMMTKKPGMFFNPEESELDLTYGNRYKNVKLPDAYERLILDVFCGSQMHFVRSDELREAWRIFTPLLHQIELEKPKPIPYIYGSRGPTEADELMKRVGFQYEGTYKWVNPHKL
smiles,measurement,setting,value
O=C(Nc1ccc(Cc2ccncc2)cc1)c1ccc(S(=O)(=O)N2CCCC2)cc1,EC50,HEK293 [1],2.66 µM (active)
same,IC50,HEK293 [2],4.59 µM (active)
same,IC50,HEK293 [3],13.6 µM (active)
same,IC50,HEK293 [4],5.81 µM (active)
same,IC50,[5],33.4 µM (inactive)
CCOc1ccccc1C=NNC(=O)CCCCC(=O)NN=Cc1ccccc1OCC,IC50,[6],> 80 µM (inactive)
O=C(NC12CC3CC(CC(C3)C1)C2)c1ccc([N+](=O)[O-])o1,EC50,[7],1.2 µM (active)
same,EC50,Streptokinase A,> 150 µM (not active)
same,EC50,Streptococcus,7.69 µM (active)
same,CC50,[8],12.4 µM (active)
same,AC50,[9],5.23 µM (active)
same,CC50,[10],10.4 µM (active)
same,CC50,[11],14.6 µM (active)
same,IC50,cells,7.14 µM (active)
same,AC50,Paired box protein Pax-8,4.39 µM (active)
CN(C)c1ccc(C(=O)N/N=C/C23CC[C@@H](O)CC2(O)CC[C@@H]2[C@@H]3CCC3(C)C(C4=CC(=O)OC4)CCC23O)cc1 (stereo partly specified),EC50,BJ [12],3.63 µM (active)
same,CC50,Vero [13],17.9 µM (active)
same,EC50,BJ [14],14.2 µM (active)
same,EC50,BJ [15],19 µM (active)
same,EC50,[16],3.56 µM (active)
same,IC50,Vero [17],> 25 µM (active)
same,CC50,Vero [18],22 µM (active)
same,IC50,[19],> 47.1 µM (inactive)
same,EC50,[20],> 53 µM (inactive)
CCCCCCCCCCCCCCC[C@@H](O)[C@@H](N)CO [DIHYDROSPINGOSINE],EC50,[7],1.34 µM (active)
same,EC50,Streptokinase A,> 150 µM (not active)
same,EC50,[21],14 µM (active)
same,EC50,[22],9.93 µM (active)
same,EC50,[23],8.66 µM (active)
same,EC50,[24],7.58 µM (active)
same,EC50,Streptococcus,8.91 µM (active)
same,IC50,Bcl-2-related protein A1,> 20 µM (inactive)
same,IC50,[25],15.5 µM (active)
same,IC50,[26],13.4 µM (active)
same,IC50,Vero [17],> 25 µM (active)
same,AC50,[27],5.6 µM (active)
